Laboratory results taken from ChEMBL document CHEMBL5331108, “Design and Synthesis of 4-Fluorophenyl-5-methylene-2(5H)-furanone Derivatives as Potent Quorum Sensing Inhibitors” (J Med Chem, 2023).
Activity calls are given as the source filed them. The calls are words filed in the database; no cut-off is given here.

Assays:
Pseudomonas aeruginosa [1] = assay: Synergistic antibacterial activity against Pseudomonas aeruginosa PAO1 infected in Kunming mouse model assessed as reduction in viable bacteria at 25 mg/kg, ip pre-infected with bacteria for 1 hrs followed by compound administration and measured after 1 hrs in the presence of ciprofloxacin; assay type: functional, organism-based
Staphylococcus aureus [2] = assay: Antibacterial activity against erthromycin-susceptible Staphylococcus aureus ATCC25923 assessed as inhibition of bacterial growth incubated for 20 hrs by CLSI protocol based microdilution method; assay type: functional
Pseudomonas aeruginosa [3] = assay: Synergistic antibacterial activity against Pseudomonas aeruginosa PAO1 assessed as inhibition of bacterial growth at highest concentration incubated for 24 hrs in the presence of ciprofloxacin by absorbance based microplate reader analysis relative to control; assay type: functional
[4] = Inhibition of quorum sensing system in Pseudomonas aeruginosa PAO1 transfected with pqsA-gfp reporter assessed as inhibition of fluorescence expression incubated for >=12 hrs by microplate reader analysis; conditions: dose 32-256 µg/ml
[5] = Inhibition of quorum sensing system in Pseudomonas aeruginosa PAO1 assessed as inhibition of rhamnolipid production at 102.4 ug/ml incubated for 24 hrs by absorbance based assay; conditions: dose 102.4 µg/ml
Pseudomonas aeruginosa [6] = assay: Synergistic antibacterial activity against Pseudomonas aeruginosa 27853 assessed as inhibition of bacterial growth at 1 to 256 ug/ml incubated for 24 hrs in the presence of Ciprofloxacin by absorbance based microplate reader analysis; assay type: functional, organism-based; conditions: dose 1-256 µg/ml
Pseudomonas aeruginosa [7] = assay: Antibacterial activity against wild type Pseudomonas aeruginosa […] CGMCC1.12483 assessed as inhibition of bacterial growth incubated for 20 hrs by CLSI protocol based microdilution method; assay type: functional
Pseudomonas aeruginosa [8] = assay: Antibacterial activity against penicillin-susceptible Pseudomonas aeruginosa ATCC27853 assessed as inhibition of bacterial growth incubated for 20 hrs by CLSI protocol based microdilution method; assay type: functional
[9] = Inhibition of quorum sensing system in Escherichia coli pEAL08-2 harboring pqsR gene with pqsA::lacZ translation fusion assessed as inhibition of pqsA translation activation by measuring inhibition of […] activity incubated for 8 hrs by absorbance based analysis; conditions: dose 32-128 µg/ml
Bacillus pumilus = assay: Antibacterial activity against penicillin-susceptible Bacillus pumilus CMCC63202 assessed as inhibition of bacterial growth incubated for 20 hrs by CLSI protocol based microdilution method; assay type: functional
[10] = Inhibition of quorum sensing system in Escherichia coli pDSY harboring rhlR gene with rhlA::lacZ translation fusion assessed as inhibition of rhlA translation activation by measuring inhibition of […] activity incubated for 8 hrs by absorbance based analysis; conditions: dose 32-128 µg/ml
[11] = Inhibition of quorum sensing system in Pseudomonas aeruginosa PAO1 assessed as inhibition of protease activity at 102.4 ug/ml incubated for 24 hrs by absorbance based assay; conditions: dose 102.4 µg/ml
[12] = Inhibition of quorum sensing system in Pseudomonas aeruginosa PAO1 assessed as inhibition of pyocyanin production at 102.4 ug/ml incubated for 18 hrs by absorbance based assay; conditions: dose 102.4 µg/ml
Pseudomonas aeruginosa [13] = assay: Synergistic antibacterial activity against Pseudomonas aeruginosa 27853 assessed as inhibition of bacterial growth at 256 ug/ml incubated for 24 hrs in the presence of Ciprofloxacin by absorbance based microplate reader analysis relative to control; assay type: functional
Pseudomonas aeruginosa [14] = assay: Synergistic antibacterial activity against Pseudomonas aeruginosa 27853 assessed as inhibition of bacterial growth at 256 ug/ml incubated for 24 hrs in the presence of Clarithromycin by absorbance based microplate reader analysis relative to control; assay type: functional
Pseudomonas aeruginosa [15] = assay: Antibacterial activity against Pseudomonas aeruginosa PAO1 assessed as inhibition of bacterial growth at 256 ug/ml measured after 25 hrs by absorbance based assay; assay type: functional, organism-based; conditions: dose 256.0 µg/ml
Pseudomonas aeruginosa [16] = assay: Inhibition of biofilm formation in Pseudomonas aeruginosa PAO1 at 32 ug/ml incubated for 20 hrs by crystal violet staining based analysis; assay type: functional
Pseudomonas aeruginosa [17] = assay: Antibacterial activity against Pseudomonas aeruginosa 27853 assessed as inhibition of bacterial growth at 256 ug/ml measured after 25 hrs by absorbance based assay; assay type: functional, organism-based; conditions: dose 256.0 µg/ml
[18] = Inhibition of quorum sensing system in Pseudomonas aeruginosa PAO1 transfected with gfp reporter gene assessed as effect on fluorescence expression at 32 to 256 ug/ml incubated for >=12 hrs by microplate reader analysis; conditions: dose 32-256 µg/ml
[19] = Inhibition of quorum sensing system in Pseudomonas aeruginosa PAO1 transfected with lasB-gfp reporter assessed as inhibition of fluorescence expression incubated for >=12 hrs by microplate reader analysis; conditions: dose 32-256 µg/ml
Pseudomonas aeruginosa [20] = assay: Synergistic antibacterial activity against Pseudomonas aeruginosa PAO1 assessed as inhibition of bacterial growth at 1 ug/ml incubated for 24 hrs in the presence of ciprofloxacin by absorbance based microplate reader analysis relative to control; assay type: functional
Pseudomonas aeruginosa [21] = assay: Antibacterial activity against Pseudomonas aeruginosa PAO1 assessed as inhibition of swarming movement at 25.6 to 102.4 ug/ml incubated for 24 hrs; assay type: functional, organism-based; conditions: dose 25.6-102.4 µg/ml
Pseudomonas aeruginosa [22] = assay: Synergistic antibacterial activity against Pseudomonas aeruginosa PAO1 assessed as inhibition of bacterial growth at 1 to 256 ug/ml incubated for 24 hrs in the presence of ciprofloxacin by absorbance based microplate reader analysis; assay type: functional, organism-based; conditions: dose 1-256 µg/ml
Escherichia coli = assay: Antibacterial activity against penicillin-susceptible Escherichia coli ATCC25922 assessed as inhibition of bacterial growth incubated for 20 hrs by CLSI protocol based microdilution method; assay type: functional
Bacillus subtilis = assay: Antibacterial activity against penicillin-susceptible Bacillus subtilis ATCC9372 assessed as inhibition of bacterial growth incubated for 20 hrs by CLSI protocol based microdilution method; assay type: functional
Pseudomonas aeruginosa [23] = assay: Synergistic antibacterial activity against Pseudomonas aeruginosa PAO1 assessed as inhibition of bacterial growth at 1 to 256 ug/ml incubated for 24 hrs in the presence of Clarithromycin by absorbance based microplate reader analysis; assay type: functional, organism-based; conditions: dose 1-256 µg/ml
Staphylococcus aureus [24] = assay: Antibacterial activity against methicillin-resistant Staphylococcus aureus ATCC43300 assessed as inhibition of bacterial growth incubated for 20 hrs by CLSI protocol based microdilution method; assay type: functional
[25] = Inhibition of quorum sensing system in Escherichia coli MG4/pKDT17 harboring lasR gene with lasB::lacZ translation fusion assessed as inhibition of lasR translation activation by measuring inhibition of […] activity incubated for 8 hrs by absorbance based analysis; conditions: dose 32-128 µg/ml
Pseudomonas aeruginosa [26] = assay: Synergistic antibacterial activity against Pseudomonas aeruginosa 27853 assessed as inhibition of bacterial growth incubated for 24 hrs in the presence of Clarithromycin by absorbance based microplate reader analysis; assay type: functional, organism-based; conditions: dose 1-256 µg/ml
[27] = Inhibition of quorum sensing system in Pseudomonas aeruginosa PAO1 transfected with rhlA-gfp reporter assessed as inhibition of fluorescence expression incubated for >=12 hrs by microplate reader analysis; conditions: dose 32-256 µg/ml
[28] = Hemolytic activity in mouse red blood cells assessed as hemolysis rate at 512 ug/ml incubated for 1 hrs by microplate reader analysis relative to control; assay type: toxicity, cell-based, Erythrocyte; conditions: red blood cells (erythrocytes), at 512 µg/mL, read-out: Activity
Pseudomonas aeruginosa [29] = assay: Inhibition of biofilm formation in Pseudomonas aeruginosa PAO1 assessed as effect on biofilm morphology at 102.4 ug/ml incubated for 24 hrs by scanning electron microscopic analysis; assay type: functional, organism-based; conditions: dose 102.4 µg/ml
Pseudomonas aeruginosa [30] = assay: Antibacterial activity against Pseudomonas aeruginosa 27853 assessed as inhibition of bacterial growth at 0.4 ug/ml incubated for 24 hrs by absorbance based microplate reader analysis relative to control; assay type: functional
Pseudomonas aeruginosa [31] = assay: Antibacterial activity against Pseudomonas aeruginosa PAO1 assessed as inhibition of bacterial growth at 0.4 ug/ml incubated for 24 hrs by absorbance based microplate reader analysis relative to control; assay type: functional
Pseudomonas aeruginosa [32] = assay: Synergistic antibacterial activity against Pseudomonas aeruginosa PAO1 assessed as inhibition of bacterial growth at 256 ug/ml incubated for 24 hrs in the presence of Clarithromycin by absorbance based microplate reader analysis relative to control; assay type: functional
Pseudomonas aeruginosa [33] = assay: Synergistic antibacterial activity against Pseudomonas aeruginosa PAO1 assessed as inhibition of bacterial growth at 1 ug/ml incubated for 24 hrs in the presence of Clarithromycin by absorbance based microplate reader analysis relative to control; assay type: functional
Pseudomonas aeruginosa [34] = assay: Synergistic antibacterial activity against Pseudomonas aeruginosa 27853 assessed as inhibition of bacterial growth at 64 ug/ml incubated for 24 hrs in the presence of Ciprofloxacin by absorbance based microplate reader analysis; assay type: functional
Pseudomonas aeruginosa [35] = assay: Antibacterial activity against Pseudomonas aeruginosa PAO1 assessed as inhibition of bacterial growth at […] incubated for 24 hrs by absorbance based microplate reader analysis relative to control; assay type: functional; conditions: dose 3.2 µg/ml

For C=C1OC(=O)C(CNC(=O)c2ccc(F)cc2)=C1c1ccc(F)cc1, the Activity (Pseudomonas aeruginosa [1]) was “Active”, the MIC (Staphylococcus aureus [2]) was > 512 µg/mL and the “inhibition (INH)” value (Pseudomonas aeruginosa [3]) was 90.53%. For the same compound, the inhibition [4] was “Dose-Dependent Effect”, the inhibition [5] was “Active” and the Activity (Pseudomonas aeruginosa [6]) was “Active”. For the same compound, the MIC (Pseudomonas aeruginosa [7]) was > 512 µg/mL, the MIC (Pseudomonas aeruginosa [8]) was > 512 µg/mL and the inhibition [9] was “Dose-Dependent Effect”. The MIC (Bacillus pumilus) was > 512 µg/mL, the inhibition [10] was “Dose-Dependent Effect” and the inhibition [11] was 30.6%. The inhibition [12] was 31.4%, the inhibition at 256 µg/mL (Pseudomonas aeruginosa [13]) was 77.2% and the inhibition at 256 µg/mL (Pseudomonas aeruginosa [14]) was 82.8%. The Activity (Pseudomonas aeruginosa [15]) was “inactive”, the inhibition at 32 µg/mL (Pseudomonas aeruginosa [16]) was 50.7% and the Activity (Pseudomonas aeruginosa [17]) was “inactive”. The inhibition [18] was “inactive”, the inhibition [19] was “Dose-Dependent Effect” and the inhibition at 1 µg/mL (Pseudomonas aeruginosa [20]) was 60.5%. The Activity (Pseudomonas aeruginosa [21]) was “Active”, the Activity (Pseudomonas aeruginosa [22]) was “Active” and the MIC (Escherichia coli) was > 512 µg/mL. The MIC (Bacillus subtilis) was > 512 µg/mL, the Activity (Pseudomonas aeruginosa [23]) was “Active” and the MIC (Staphylococcus aureus [24]) was > 512 µg/mL. The inhibition [25] was “Dose-Dependent Effect”, the Activity (Pseudomonas aeruginosa [26]) was “Dose-Dependent Effect” and the inhibition [27] was “Dose-Dependent Effect”. The hemolysis at 1 h, 512 ug/ml [28] was > 2.5% and the inhibition (Pseudomonas aeruginosa [29]) was “Active”.

Compound O=C(O)c1cn(C2CC2)c2cc(N3CCNCC3)c(F)cc2c1=O [CIPROFLOXACIN] has an inhibition at 0.4 µg/mL (Pseudomonas aeruginosa [30]) of 26.2% and an inhibition at 0.4 µg/mL (Pseudomonas aeruginosa [31]) of 42.1%.

For C=C1OC(=O)C(CNC(=O)c2ccc(C)cc2)=C1c1ccc(F)cc1, the MIC (Staphylococcus aureus [2]) was > 512 µg/mL, the inhibition [5] was “Active” and the Activity (Pseudomonas aeruginosa [6]) was “Active”. For the same compound, the MIC (Pseudomonas aeruginosa [7]) was > 512 µg/mL, the MIC (Pseudomonas aeruginosa [8]) was > 512 µg/mL and the MIC (Bacillus pumilus) was > 512 µg/mL. For the same compound, the inhibition at 256 µg/mL (Pseudomonas aeruginosa [32]) was 44.6%, the inhibition [11] was “Active” and the inhibition [12] was 55.5%. The inhibition at 256 µg/mL (Pseudomonas aeruginosa [14]) was 45.4%, the Activity (Pseudomonas aeruginosa [15]) was “inactive” and the inhibition (Pseudomonas aeruginosa [16]; dose 32.0 µg/ml) was “Active”. For the same compound, the Activity (Pseudomonas aeruginosa [17]) was “inactive”, the inhibition at 1 µg/mL (Pseudomonas aeruginosa [33]) was 54% and the Activity (Pseudomonas aeruginosa [22]) was “Active”. The MIC (Escherichia coli) was > 512 µg/mL, the MIC (Bacillus subtilis) was > 512 µg/mL and the Activity (Pseudomonas aeruginosa [23]) was “Active”. For the same compound, the MIC (Staphylococcus aureus [24]) was > 512 µg/mL, the Activity (Pseudomonas aeruginosa [26]) was “Dose-Dependent Effect” and the inhibition at 64 µg/mL (Pseudomonas aeruginosa [34]) was 13%. For the same compound, the hemolysis at 1 h, 512 ug/ml [28] was < 2.5% and the inhibition at […] (Pseudomonas aeruginosa [35]) was 44.6%.
